According to US9855236B2, “Pharmaceutical compositions comprising DGLA and/or 15-HETrE and methods of use thereof” (Dignity Sciences Limited, priority 2011, dated 2018):

How the values were obtained:
[1] = tested on: UV-induced edema and erythema; experiment: Sinclair miniature swine phototoxicity model: sites exposed to UV, then treated topically for 7 days (treatment); type: in vivo; settings: for average Draize score as compared to test sites treated with the control vehicle: test sites first exposed to UV radiation, then treated topically twice daily for 7 days, any of the tested dosages, vehicle ethanol, FIGS. 1-6; for treating or reversing UV induced erythema: topical application after UV exposure
Description: Compositions comprising DGLA and/or 15-HETrE were tested for their ability to treat and/or prevent edema and erythema (e.g., UV induced erythema). In an exemplary method, a Sinclair miniature swine model of phototoxicity testing was employed to examine the effects of such compositions on UV-induced edema and erythema. Miniature swine were chosen for these studies as they have a skin structure that closely resembles that of humans. The miniature swine used in these studies were fed standard Sinclair S-9 ration or equivalent, once a day at a maintenance amount and had ad libitum access to deep well water. Throughout the study, the swine were housed individually in cages (˜3×5 ft) constructed of stainless steel with self-spanned polyvinyl chloride (PVC)-coated expanded metal flooring. The animal housing rooms were set to maintain a room temperature of 16 to 27° C. (61 to 81° F.), with fluorescent lights providing an approximate 12-hr light/12-hr dark photoperiod. The animals were acclimated for approximately 5 days prior to the start of dosing. During acclimation, animals were subject to a physical examination by a veterinarian and any animal with questionable health was excluded from these studies. For these studies, two groups each consisting of three animals (#1-#3) were used. For each animal, ten sites (e.g., dose sites) for were established on the torso and the hair at the site was clipped with an electric clipper. These sites were then shaved and demarcated by tattooing at least four days prior to the start of initial dosing on study day 1. The dose sites may be shaved with a razor the day prior to initial dose administration and prior to the second and third application when applicable. The sites (approximately 4 cm^2 in size) were evenly split on the left and right side with 5 sites demarcated on each side. Each animal was topically administered a composition comprising a control vehicle (ethanol), DGLA or HETrE to the demarcated test sites on the animal before and/or after exposure of the test sites to UV radiation. Specifically, a 0.1 mL dose of a composition comprising 1 mg/mL, 10 mg/mL, or 100 mg/mL of DGLA and a 0.1 mL dose of a composition comprising 0.1 mg/mL, 1.0 mg/mL, or 10 mg/mL 15-HETrE was applied to separate 4 cm^2 areas of the skin (e.g., test sites) on each animal to achieve a dose per area of 0.1 mg/4 cm^2, 1.0 mg/4 cm^2, or 10.0 mg/4 cm^2 DGLA or 0.1 mg/4 cm^2, 1.0 mg/4 cm^2, or 10.0 mg/4 cm^2 15-HETrE, respectively. Such compositions were applied via a pipette twice daily with approximately seven hours between administrations over 7 days. Table 1 below outlines the dosing regimen for the 10 sites on each animal and indicates the day that the animal was administered a dose of UV radiation. […]

[2] = tested on: UV-induced edema and erythema; experiment: Sinclair miniature swine phototoxicity model: sites treated topically for 7 days, then exposed to UV (prevention); type: in vivo; settings: for prevention of UV-induced erythema: topical before UV exposure; for average Draize score as compared to test sites treated with the control vehicle: test sites first treated topically twice daily for 7 days, then exposed to UV radiation, vehicle ethanol, FIGS. 7-12
Description: Compositions comprising DGLA and/or 15-HETrE were tested for their ability to treat and/or prevent edema and erythema (e.g., UV induced erythema). In an exemplary method, a Sinclair miniature swine model of phototoxicity testing was employed to examine the effects of such compositions on UV-induced edema and erythema. Miniature swine were chosen for these studies as they have a skin structure that closely resembles that of humans. The miniature swine used in these studies were fed standard Sinclair S-9 ration or equivalent, once a day at a maintenance amount and had ad libitum access to deep well water. Throughout the study, the swine were housed individually in cages (˜3×5 ft) constructed of stainless steel with self-spanned polyvinyl chloride (PVC)-coated expanded metal flooring. The animal housing rooms were set to maintain a room temperature of 16 to 27° C. (61 to 81° F.), with fluorescent lights providing an approximate 12-hr light/12-hr dark photoperiod. The animals were acclimated for approximately 5 days prior to the start of dosing. During acclimation, animals were subject to a physical examination by a veterinarian and any animal with questionable health was excluded from these studies. For these studies, two groups each consisting of three animals (#1-#3) were used. For each animal, ten sites (e.g., dose sites) for were established on the torso and the hair at the site was clipped with an electric clipper. These sites were then shaved and demarcated by tattooing at least four days prior to the start of initial dosing on study day 1. The dose sites may be shaved with a razor the day prior to initial dose administration and prior to the second and third application when applicable. The sites (approximately 4 cm^2 in size) were evenly split on the left and right side with 5 sites demarcated on each side. Each animal was topically administered a composition comprising a control vehicle (ethanol), DGLA or HETrE to the demarcated test sites on the animal before and/or after exposure of the test sites to UV radiation. Specifically, […] comprising 0.1 mg/mL, 1.0 mg/mL, or 10 mg/mL 15-HETrE was applied to separate 4 cm^2 areas of the skin (e.g., test sites) on each animal to achieve a dose per area of 0.1 mg/4 cm^2, 1.0 mg/4 cm^2, or 10.0 mg/4 cm^2 DGLA or 0.1 mg/4 cm^2, 1.0 mg/4 cm^2, or 10.0 mg/4 cm^2 15-HETrE, respectively. Such compositions were applied via a pipette twice daily with approximately seven hours between administrations over 7 days. Table 1 below outlines the dosing regimen for the 10 sites on each animal and indicates the day that the animal was administered a dose of UV radiation. For example, for test sites 5-7, the sites were first exposed to UV radiation on day 4 and then contacted topically with DGLA or HETrE on days 4-10. Additionally, for example, for test sites 8-10, the sites were topically contacted with DGLA or HETrE on days 1-7 and then exposed to UV radiation on day 8. [table] Animals receiving UV light were anesthetized via isoflurane gas and 100% oxygen. To exposure the animals to UV, a bank of fluorescent lamps utilizing 10 UVA and 1 UVB bulb was then suspended over the animal. The correct dose level of UV light applied to the designated dose site was verified using a Solar Light® light meter. Animals were exposed to MED/hi of 4 for a time period of 21 minutes yielding a MEDi of 1.4. […]

Structure (SMILES) | average Draize score as compared to test sites treated with the control vehicle [1] | treating or reversing UV induced erythema [1] | skin irritation by the high dose ([2]; 10 mg/mL dose of DGLA, topical, prevention of erythema could not be determined at this dose) | prevention of UV-induced erythema ([2]; dose of 0.1 or 1.0 mg/mL DGLA) | average Draize score as compared to test sites treated with the control vehicle [2] | prevention of UV-induced erythema ([2]; dose of 0.01, 0.1, or 1.0 mg/mL HETrE)
CCCCC/C=C\C/C=C\C/C=C\CCCCCCC(=O)O [DGLA, cis-8,11,14-eicosatrienoic acid] | did not exhibit an appreciable difference | not capable of treating or reversing UV induced erythema | irritating to the skin | able to prevent UV-induced erythema | significant reduction | –
CCCCCC(O)/C=C/C=C\C/C=C\CCCCCCC(=O)O (stereo not drawn) [HETrE, 15-Hydroxy-eicosa-8(Z),11(Z),13(E)-trienoic acid] | did not exhibit an appreciable difference | not capable of treating or reversing UV induced erythema | – | – | significant reduction | able to prevent UV-induced erythema
